Assay results from a melting point compilation (Tetko et al.; mined from patent text by program, amines drawn as free bases though some values may be those of a salt).

| Structure (SMILES) | melting point [°C] |
| --- | --- |
| Cc1nc(O)c(C)c(NCC2CC2)n1 | 227 to 228 |
| CCCN1C(=O)/C(=C/c2c[nH]c3ncccc23)N=C1C | 206 |
| Cn1nnnc1SCc1ccccc1 | 48.5 to 49.5 |
| O=C1NC(=O)c2c(-c3ccccc3[N+](=O)[O-])ccc(-c3ccccc3)c21 | 224 to 226 |
| C[C@@H](Nc1c(Nc2cccnc2)c(=O)c1=O)C(C)(C)C | 283 to 285 |
| COc1cc(COc2ccc(N)nn2)c(Br)c(OC)c1OC | 160 to 161 |
| CCSC1=CCC2C3CCC4=CC(=O)C=CC4(C)C3C(O)CC12C (centres undefined) | 216 to 218 |
| O=C(Nc1ccc2[nH]cc(C3CCNCC3)c2c1)c1ccc(F)cc1 | 229 to 230 |
| O=C(/C=C/c1ccc(O)c(O)c1)Nc1ccccc1C(=O)O | 204 to 206 |
| O=C1C[C@H](NC(=O)C(F)(F)F)C(=O)O1 | 116 to 118 |
| CC(C)c1ccc2ncn(/C=C/C(=O)NCCNCc3cccnc3)c(=O)c2c1 | 121 to 124 |
| C#CCOC(=O)c1cc(Br)c(O)c(OC)c1 | 121 to 122 |
| CC(C)(C)CC(=O)Nc1cc(-c2ccnc3c(C(=O)c4cccs4)cnn23)ccc1F | 180 to 181 |
| Cc1c(Cl)ccc2c1[nH]c1c(CO)cccc12 | 187 |
| COc1ccc(NC(=O)OC(C)(C)C)cc1 | 93 to 94 |
| COc1cc(N)c(Cl)cc1C(=O)NC1C2CCN(CC2)C1CN1CCCCC1 (centres undefined) | 185 to 187 |
| CS(=O)c1ccc2ncn(C=CC(=O)O)c(=O)c2c1 (centres undefined) | 275 to 276 |
| O=C(O)CCn1nc2ccc(S)nn2c1=O | 174 to 176 |
| c1ccc(CC2CNCCNCCNCCNCCN2)cc1 (centres undefined) | 98 to 100 |
| C=C1CCC2C3CC(=O)c4cc(OC(C)=O)ccc4C3CCC12C (centres undefined) | 91 to 94 |

| Structure (SMILES) | melting point [°C] |
| --- | --- |
| Cc1ccc2c(c1)C(O)CC21CCN(CCCC(=O)c2ccc(F)cc2)C1 (centres undefined) | 137 to 139 |
| N#Cc1cc(N)ccc1N1CCC(N2CCOCC2)CC1 | 84 to 86 |
| O=C1c2ccc(N3CCCCC3)cc2C(=O)c2cc3ccccc3cc21 | 230 to 233 |
| CCOC(=O)c1cn2c(n1)SCC2 | 107 to 109 |
| O=C(NC1CCCC1)NS(=O)(=O)c1cccc(Cl)c1Cl | 202 to 207 |
| CCOC(=O)C1=Cc2cccc(/C=C/C(=O)O)c2OCC1 | 166 to 168 |
| CCOC(=O)c1ncn2c1[C@@H]1CCCN1C(=O)c1cc([N+](=O)[O-])ccc1-2 | 191 to 193 |
| CC(=O)Oc1cccc(C(=O)O)c1C | 147 to 148 |
| Cc1cc(-c2cc(C(C)(C)C)[nH]n2)c(F)cc1Cl | 138 |
| O=C(O)[C@H]1[C@H](CS)N(Cc2ccccc2)C(=O)N1Cc1ccccc1 | 159 to 160 |
| NC1CCN(c2c(F)c(F)c3c(=O)c(C(=O)O)cn(C4CC4)c3c2F)C1 (centres undefined) | 290 to 292 |
| FC(F)(F)c1cc(Nc2nnc(CCCc3cccnc3)c3ccccc23)ccc1Cl | 142 |
| O=C(Nc1cccc(Nc2ccc3c(c2)NC(=O)C3=Cc2ccc[nH]2)c1)Nc1cc(F)c(F)cc1F | 224 to 226 |
| O=C(C(=C1SCS1)c1ccncc1)c1ccc(Cl)cc1 | 149 to 151 |
| O=C1OC(c2ccccc2)CCN1Cc1ccccc1NS(=O)(=O)C(F)(F)F (centres undefined) | 152 |
| COC(=O)c1ccc2cc(C(=O)c3cc(O)c4c(c3)C(C)(C)CCC4(C)C)ccc2c1 | 222 |
| O=C1OCC2(CC2)N1c1nc(-c2ccc(Br)cc2)cs1 | 201 to 202 |
| CC(C)(O)c1ccc(S(N)(=O)=O)o1 | 116 to 118 |
| CC(C)N1Cc2ccccc2N(CCN2CCC(c3c[nH]c4cc(F)ccc34)C2)S1(=O)=O (centres undefined) | 50.8 to 54.4 |
| CCC(=O)C1=C(O)CC(c2ccc3sccc3c2)CC1=O (centres undefined) | 134 |

Second part, the compound after the results:

| melting point [°C] | Structure (SMILES) |
| --- | --- |
| 78 to 82 | CCOCc1cc(COc2cc(C)nc(C)c2OC)ccc1-c1ccccc1S(=O)(=O)Nc1noc(C)c1C |
| 225 to 227 | COC(=O)c1sc2c(c1N=CN(C)C)c1ccccc1c(=O)n2-c1ccccc1 |
| 173 to 175 | CC(=O)Nc1c(C(=O)c2ncccc2C)[nH]c2cc(Cl)ccc12 |
| 92.5 to 93.5 | CON=C(c1ccccc1OCc1ccc(Cl)cc1)n1ccnc1 |
| 243 to 245 | CCOC(=O)c1cn(CC)c2cc(-c3ccno3)ccc2c1=O |
| 123 to 125 | CCCc1c(OCC(O)COc2cccc(N)c2C#N)ccc(C(C)=O)c1O (centres undefined) |
| 245 | COc1ccc2c(=O)c(-c3ccc(F)cc3)c(-c3ccc(S(N)(=O)=O)cc3)oc2c1 |
| 206 to 207 | CN(CCCNC(=O)c1c(Cl)ccc2nc3ccccc3nc12)CCCNC(=O)c1c(Cl)ccc2nc3ccccc3nc12 |
| > 275 | O=C(Nc1nc(-c2ccccc2)c(-c2nc3ccccc3c(=O)n2-c2ccc(Cl)cc2)s1)c1ccccc1 |
| 261 to 262 | Cc1cccc(C)c1NC(=O)CN1C(=O)C2(COc3cc4c(cc32)CCO4)c2ccccc21 (centres undefined) |
| 147 to 148 | CCCC(C)c1nn(-c2ccc(C(F)(F)F)cn2)cc1CCCOc1c(C)cccc1CC(=O)O (centres undefined) |
| 94 to 95 | CCOC(=O)/C=C/c1cn(Cc2ccc(OCc3ccccc3)cc2)nc1-c1ccccc1 |
| 196 to 197 | Nc1cc(C(=O)O)cc(OCc2ccccc2)c1C(=O)c1ccc(Cl)cc1 |
| 104 to 109 | CCCNC(=O)c1ccc(C)c(-c2nc(N(C)CCCN(C)C)nc3c2ccc(=O)n3-c2c(F)cccc2F)c1 |
| 60 | CCOC(=O)NC(=O)n1c(-c2cc(OC)c(O)c(OC)c2)nc(-c2ccc(N(CC)CC)cc2)c1-c1ccc(N(CC)CC)cc1 |
| 195 to 196 | CC(C)Oc1ccc(-c2noc(-c3ccc(CN4CC(C(=O)O)C4)cc3)n2)cc1Cl |
| 188 to 190 | O=C1c2ccccc2-c2c1c1ccccc1c(=O)n2CCCCCCNS(=O)(=O)c1ccc(Br)cc1 |
| 174 to 176 | CCOC(=O)c1cc(CC)sc1Nc1ccc([N+](=O)[O-])cc1N |
| 152 to 156 | O=C(Nc1ccccc1O)c1ccc(CSc2ccc(O)cc2)cc1 |
| 198 to 201 | Cc1nc(N2CCN(CCc3c[nH]c4ccccc34)C2=O)sc1C(=O)NCc1cccnc1 |
| 197 to 199 | CCCOc1ccc(S(=O)(=O)N2CCC(C(=O)OCC)CC2)cc1-c1nc2cc(N)c(N)cc2c(=O)[nH]1 |
| 146 to 149 | COC(=O)NC(C)(C)c1ccc(CS(=O)(=O)c2ccc(C)c(C)c2)cc1 |
| 162 to 165 | CN(C)Cc1cccc(-c2cc(C(N)=O)ccc2C(N)=O)c1 |
| 146 to 147 | CCCc1nn(-c2ccc(C(F)(F)F)cn2)cc1CCCOc1c(CC)cccc1CC(=O)O |
| 112 to 114 | Cc1cc(F)ccc1Nc1nc(N(C)c2ccccc2)c2cc(OCCN(C)C)ccc2n1 |
| 230 to 231 | Cc1ccc(NC(=O)Nc2cnc3ccc(Cl)cc3c2-c2ccccc2)c(C)c1 |
| 215 to 217 | COc1ccc(Nc2cccc3c2C(=O)N(C2CCC(=O)NC2=O)C3=O)cc1OC (centres undefined) |
| 161 to 163 | COc1cc(C=O)c2oc(-c3ccc(OC)c(F)c3)cc2c1 |
| 184 to 187 | COc1ccc(OC)c2c1C[C@@H](O)[C@H](N1CCN(c3cccc(C(F)(F)F)c3)CC1)C2 (relative stereo) |
